Measurements as given in ChEMBL document CHEMBL1201862, “PubChem BioAssay data set” (2004).
Activity calls are given as the source filed them.

Columns and labels:
Leucine aminopeptidase = biological target: T1, Leucine aminopeptidase (Plasmodium falciparum 3D7, UniProt Q8IL11); test: P. falciparum M17LAP inhibitors, primary screen, biochemical, fluorogenic H-Leu-NHMec substrate, 1536-well (AID 1619); format: functional
T1 sequence (Q8IL11 whole entry): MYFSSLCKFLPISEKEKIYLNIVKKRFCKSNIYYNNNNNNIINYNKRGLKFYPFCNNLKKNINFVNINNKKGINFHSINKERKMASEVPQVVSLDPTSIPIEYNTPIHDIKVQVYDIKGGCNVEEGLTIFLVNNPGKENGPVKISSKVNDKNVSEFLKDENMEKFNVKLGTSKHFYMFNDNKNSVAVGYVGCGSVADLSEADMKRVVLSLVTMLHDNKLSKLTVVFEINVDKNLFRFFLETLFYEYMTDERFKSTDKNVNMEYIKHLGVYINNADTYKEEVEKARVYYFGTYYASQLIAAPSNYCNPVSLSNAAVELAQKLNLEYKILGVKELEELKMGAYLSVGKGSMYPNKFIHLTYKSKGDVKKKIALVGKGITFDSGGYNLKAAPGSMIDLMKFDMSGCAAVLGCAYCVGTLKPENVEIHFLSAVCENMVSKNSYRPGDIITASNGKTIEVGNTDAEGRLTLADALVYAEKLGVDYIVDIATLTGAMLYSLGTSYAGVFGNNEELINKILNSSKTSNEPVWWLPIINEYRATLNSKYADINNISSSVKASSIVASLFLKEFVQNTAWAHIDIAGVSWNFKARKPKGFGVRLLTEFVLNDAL

Aspartyl aminopeptidase = biological target: T2, Aspartyl aminopeptidase (Plasmodium falciparum 3D7, UniProt Q8I2J3); test: Counterscreen for inhibitors of M1 and M17 aminopeptidases: QFRET-based biochemical high throughput dose response assay for inhibitors of the Plasmodium falciparum M18 Aspartyl Aminopeptidase (PFM18AAP). [Related PubChem assays: 1619 (Screening assay (M17LAP inhibitors).), 1445 (Screening assay (M1AAP inhibitors).)]
T2 sequence (Q8I2J3 whole entry): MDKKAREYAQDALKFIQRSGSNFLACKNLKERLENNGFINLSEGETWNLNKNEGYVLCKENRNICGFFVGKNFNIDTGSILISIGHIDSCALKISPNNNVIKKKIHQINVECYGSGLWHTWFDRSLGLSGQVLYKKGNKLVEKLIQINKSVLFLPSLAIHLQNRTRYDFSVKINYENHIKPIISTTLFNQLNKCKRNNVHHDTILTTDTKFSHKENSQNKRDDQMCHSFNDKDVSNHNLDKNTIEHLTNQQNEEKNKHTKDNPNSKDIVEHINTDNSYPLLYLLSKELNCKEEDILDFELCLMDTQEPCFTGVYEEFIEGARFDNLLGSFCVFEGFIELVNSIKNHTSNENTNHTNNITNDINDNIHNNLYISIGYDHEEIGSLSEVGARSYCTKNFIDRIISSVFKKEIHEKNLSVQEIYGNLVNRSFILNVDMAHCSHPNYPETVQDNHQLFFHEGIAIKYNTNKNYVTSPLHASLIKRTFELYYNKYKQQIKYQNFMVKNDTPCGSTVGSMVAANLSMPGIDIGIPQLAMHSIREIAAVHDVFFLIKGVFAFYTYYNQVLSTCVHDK

Procathepsin L = Procathepsin L (Homo sapiens, UniProt P07711); test: CTSL1 protease inhibition – biochemical, QFRET, 1536-well, counter-screen for M1/M17 aminopeptidase inhibitor project, dose response (AID 2214)
[1] = biological target: G-protein coupled receptor 55 (Homo sapiens, UniProt Q9Y2T6); test: selective activators of receptor GPR55 – imaging, U2OS cells, beta-arrestin-GFP redistribution, primary screen (AID 1961); format: functional
Coagulation factor XII = biological target: T3, Coagulation factor XII (Homo sapiens, UniProt P00748); test: activated coagulation factor XII inhibitor potency, concentration-effect curve, cell-free (AID 716); format: functional
T3 sequence (P00748 whole entry): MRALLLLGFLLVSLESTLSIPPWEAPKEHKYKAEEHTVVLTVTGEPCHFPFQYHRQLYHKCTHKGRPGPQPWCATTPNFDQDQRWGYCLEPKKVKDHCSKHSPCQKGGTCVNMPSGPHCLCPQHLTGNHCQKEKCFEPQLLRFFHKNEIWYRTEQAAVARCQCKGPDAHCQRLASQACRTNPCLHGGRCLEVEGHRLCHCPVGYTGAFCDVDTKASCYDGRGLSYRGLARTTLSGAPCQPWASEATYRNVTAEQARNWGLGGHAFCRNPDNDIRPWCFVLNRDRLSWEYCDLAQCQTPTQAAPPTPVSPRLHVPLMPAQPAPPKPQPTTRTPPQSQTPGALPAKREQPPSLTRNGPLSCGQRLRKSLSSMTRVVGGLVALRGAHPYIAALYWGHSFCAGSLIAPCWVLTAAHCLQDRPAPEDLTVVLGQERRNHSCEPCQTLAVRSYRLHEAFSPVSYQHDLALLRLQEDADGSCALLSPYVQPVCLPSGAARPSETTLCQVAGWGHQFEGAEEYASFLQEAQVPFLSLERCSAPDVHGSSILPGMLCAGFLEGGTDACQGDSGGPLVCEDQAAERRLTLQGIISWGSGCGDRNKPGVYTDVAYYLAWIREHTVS

Hexokinase = Hexokinase (Trypanosoma brucei, UniProt Q38C41); test: Confirmation assay for inhibitors of Trypanosoma brucei hexokinase 1-Analogue-first series. [Related pubchem assays (depositor defined):AID1430, AID1632, AID2516, AID2560, AID2579, AID2600, AID449725, AID492951]; format: functional
[2] = biological target: Glucose-6-phosphate 1-dehydrogenase (Homo sapiens, UniProt P11413); test: inhibition of Homo sapiens G6PD, dose series – biochemical, fluorescence, selectivity assay for P. falciparum G6PD inhibitor project, dose response (AID 504792); format: functional
[3] = biological target: T4, Polyadenylate-binding protein 1 (Homo sapiens, UniProt P11940); test: MLLE binding blockers, Cy5 peptide tracer – biochemical, fluorescence polarization, Cy5-PAM2 peptide, secondary, miRNA deadenylation inhibitor project, dose response (AID 602260); format: functional; conditions: read-out: IC50_Mean
[4] = biological target: T4, Polyadenylate-binding protein 1; test: MLLE domain peptide-binding blockers, IC50 – biochemical, fluorescence polarization, FITC-PAM2 peptide, dose response (AID 602259); format: functional; conditions: read-out: IC50_Mean

T4 sequence (P11940 whole entry, the tested form may be a part): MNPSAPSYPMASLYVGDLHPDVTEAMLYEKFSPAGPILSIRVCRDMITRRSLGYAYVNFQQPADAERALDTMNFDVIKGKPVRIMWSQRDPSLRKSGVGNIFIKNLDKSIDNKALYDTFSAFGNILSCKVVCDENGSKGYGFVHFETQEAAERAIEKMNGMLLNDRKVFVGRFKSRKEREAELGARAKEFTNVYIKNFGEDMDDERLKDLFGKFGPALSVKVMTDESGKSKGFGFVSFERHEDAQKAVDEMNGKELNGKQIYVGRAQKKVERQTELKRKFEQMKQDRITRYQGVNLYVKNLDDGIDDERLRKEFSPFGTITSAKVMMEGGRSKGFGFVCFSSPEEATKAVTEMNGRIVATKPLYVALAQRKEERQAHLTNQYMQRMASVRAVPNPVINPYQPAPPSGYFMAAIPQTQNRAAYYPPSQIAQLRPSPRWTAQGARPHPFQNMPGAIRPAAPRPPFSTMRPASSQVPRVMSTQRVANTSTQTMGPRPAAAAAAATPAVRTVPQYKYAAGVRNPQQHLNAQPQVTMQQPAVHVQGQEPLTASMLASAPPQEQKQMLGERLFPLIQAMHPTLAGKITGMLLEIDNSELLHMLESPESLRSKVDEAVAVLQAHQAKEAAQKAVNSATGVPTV
Glucose-6-phosphate 1-dehydrogenase, sequence (P11413 whole entry): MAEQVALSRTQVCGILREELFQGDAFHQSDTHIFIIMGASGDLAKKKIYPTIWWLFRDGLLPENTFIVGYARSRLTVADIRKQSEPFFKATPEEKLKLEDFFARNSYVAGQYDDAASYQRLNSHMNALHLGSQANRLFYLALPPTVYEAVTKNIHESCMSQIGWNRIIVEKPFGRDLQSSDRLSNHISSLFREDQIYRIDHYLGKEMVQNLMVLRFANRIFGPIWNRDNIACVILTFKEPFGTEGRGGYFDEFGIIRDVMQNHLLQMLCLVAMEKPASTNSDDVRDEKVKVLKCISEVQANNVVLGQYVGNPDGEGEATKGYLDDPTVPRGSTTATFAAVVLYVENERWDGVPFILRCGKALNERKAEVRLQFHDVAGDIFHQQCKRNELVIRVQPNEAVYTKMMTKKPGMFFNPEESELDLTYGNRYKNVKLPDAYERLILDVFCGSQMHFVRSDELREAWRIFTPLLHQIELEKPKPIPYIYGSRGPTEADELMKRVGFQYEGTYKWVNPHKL
G-protein coupled receptor 55, sequence (Q9Y2T6 whole entry): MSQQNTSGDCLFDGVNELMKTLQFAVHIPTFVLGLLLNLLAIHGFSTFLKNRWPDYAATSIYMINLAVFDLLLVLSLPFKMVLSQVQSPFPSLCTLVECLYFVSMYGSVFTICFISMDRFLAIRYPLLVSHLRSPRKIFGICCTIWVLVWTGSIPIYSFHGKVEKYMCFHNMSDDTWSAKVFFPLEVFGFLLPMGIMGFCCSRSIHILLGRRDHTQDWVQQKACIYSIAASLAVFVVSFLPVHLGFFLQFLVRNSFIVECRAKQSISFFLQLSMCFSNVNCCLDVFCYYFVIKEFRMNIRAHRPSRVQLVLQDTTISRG
Procathepsin L, sequence (P07711 whole entry): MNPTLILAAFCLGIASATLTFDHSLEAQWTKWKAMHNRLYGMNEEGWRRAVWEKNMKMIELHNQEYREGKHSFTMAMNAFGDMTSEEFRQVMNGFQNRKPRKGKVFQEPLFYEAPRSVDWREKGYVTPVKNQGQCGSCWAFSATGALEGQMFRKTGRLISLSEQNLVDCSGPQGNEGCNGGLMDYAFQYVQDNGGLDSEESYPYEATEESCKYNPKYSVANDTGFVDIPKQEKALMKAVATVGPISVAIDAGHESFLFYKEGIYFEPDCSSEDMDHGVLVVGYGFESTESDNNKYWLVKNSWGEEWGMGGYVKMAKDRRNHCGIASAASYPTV
Hexokinase, sequence (Q38C41 whole entry): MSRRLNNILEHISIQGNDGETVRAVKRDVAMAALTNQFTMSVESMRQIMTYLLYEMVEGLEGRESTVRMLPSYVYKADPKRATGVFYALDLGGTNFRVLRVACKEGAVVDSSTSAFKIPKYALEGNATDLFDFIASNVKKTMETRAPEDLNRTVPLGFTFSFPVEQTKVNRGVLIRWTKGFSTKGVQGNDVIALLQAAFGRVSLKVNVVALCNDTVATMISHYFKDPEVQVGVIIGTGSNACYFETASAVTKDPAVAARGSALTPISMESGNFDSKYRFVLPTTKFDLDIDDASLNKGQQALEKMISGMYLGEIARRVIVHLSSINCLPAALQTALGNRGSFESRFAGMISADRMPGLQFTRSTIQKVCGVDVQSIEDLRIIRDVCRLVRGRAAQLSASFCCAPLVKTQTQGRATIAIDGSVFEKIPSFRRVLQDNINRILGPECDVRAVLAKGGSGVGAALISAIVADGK

Structure (SMILES): O=C(CSc1nnc(Nc2ccccc2)s1)NN1C(=O)NC2(CCCCC2)C1=O
- IC50 (Leucine aminopeptidase): < 1 µM (active)
- IC50 (Aspartyl aminopeptidase): > 73.5 µM (not active)
- IC50 (Procathepsin L): > 59.6 µM (not active)
- EC50 [1]: 30.3 µM (inactive)

Structure (SMILES): COc1ccc2c(c1)CCc1c(C(=O)NCc3cccnc3)noc1-2
- IC50 (Coagulation factor XII): 3.76 µM (active)

Structure (SMILES): N#Cc1ccc2c(=O)n(-c3ccccc3)sc2c1
- IC50 (Hexokinase): 6.66 µM (active)
- IC50 [2]: 7.11 µM (active)
- IC50 [3]: > 66 µM (inactive)
- IC50 [4]: > 66 µM (inactive)
